Molecules are shown by their SMILES.

One may read the inhibition as the drop in the measured response relative to a control, in per cent. High values mean strong suppression, low ones little suppression. Broadly, the IC50 is the concentration at which inhibition is half-maximal. A lower IC50 goes with higher potency. What is called melting point is the temperature of the solid-liquid transition.

One data set addresses T1, Aromatase (Homo sapiens, UniProt P11511).
T1 construct: Aromatase was prepared from the microsome fraction of human placenta tissue; from tissue; host or cells: human placenta (microsome fraction)
T1 sequence (P11511 1-503): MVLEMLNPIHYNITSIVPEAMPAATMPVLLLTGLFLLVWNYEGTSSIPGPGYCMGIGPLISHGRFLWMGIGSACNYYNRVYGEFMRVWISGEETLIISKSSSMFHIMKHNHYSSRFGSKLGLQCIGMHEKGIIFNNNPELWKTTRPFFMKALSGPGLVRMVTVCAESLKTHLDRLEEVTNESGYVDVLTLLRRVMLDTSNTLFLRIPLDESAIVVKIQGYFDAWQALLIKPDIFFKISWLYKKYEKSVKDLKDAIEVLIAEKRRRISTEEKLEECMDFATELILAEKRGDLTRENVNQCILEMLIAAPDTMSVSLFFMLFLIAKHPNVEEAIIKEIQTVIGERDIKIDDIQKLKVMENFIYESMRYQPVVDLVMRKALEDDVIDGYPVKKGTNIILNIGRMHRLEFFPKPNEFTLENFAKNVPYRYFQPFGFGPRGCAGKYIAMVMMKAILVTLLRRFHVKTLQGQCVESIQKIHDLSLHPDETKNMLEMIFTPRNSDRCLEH
Description: Aromatase inhibiting activity test, human placenta microsomes. It is filed as biochemical. As to conditions: inhibitor 25 μM, testosterone 2.5 μM, NADPH 250 μM. How it is done:
Measurement was done according to the method of Rolf W. Hartmann and Christine Batzl (J. Med. Chem., 29, 8, 1368, 1986).
Aromatase was prepared from the microsome fraction of human placenta tissue according to the method of Thompson and Siiteri (J. Biol. Chem., 249, 5346, 1974). Microsomes obtained were suspended in a phosphate buffer solution (0.05 M, pH 7.4) and stored at −30° C.
Enzyme activity was evaluated by measuring the amount of ^3H2O produced by [1β, 2β-^3H] testosterone during the reaction according to the methods of Foster A. B. et al. (Foster A. B. et al., J. Med. Chem., 26, 50, 1983) and Graves P. E. and Salhanick H. A. (Endocrinology, 105, 52, 1979) as follows. To a test tube containing 0.225 μCi of [1β, 2β-^3H]testosterone were added 5 μM unlabeled testosterone, 2 mM NADPH, 20 mM glucose-6-phosphate, 1EU of glucose-6-phosphate dehydrogenase, and a test compound (0-250 μM) dissolved in phosphate buffer (0.05 M, pH 7.4). The test compound was dissolved in ethanol and diluted with the phosphate buffer. The final ethanol concentration in a reaction solution of the control and the test compound was 2%. This test tube was preincubated in a water bath at 30° C. for 5 minutes. Next, 0.5 mg of the microsome enzyme was added to start the reaction. The total volume of the reaction solution was 0.5 ml. Water phase portions (100 μl) were taken 0, 7, 14, and 21 minutes after the start of the reaction and added to 200 μl of cold 1 mM HgCl2. To this were added 200 μl of a 2% dextran-treated activatd charcoal (DCC) suspension. The admixture was shaken for 20 minutes and then centrifuged at 1500× g for 5 minutes to isolate the steroid adsorbed on DCC. The amount of the produced ^3H2O in the fractionated supernatant was counted by a liquid scintillation counter. Control samples with no test compound were tested in the same manner. The inhibiting activity (%) was calculated from the measurement using calculation formula 1.
Enzyme source: Human placenta microsomes
Inhibitor concentration: 25 μM (inhibiting activity (%) was calculated)
Substrate concentration: 2.5 μM (testosterone)
NADPH concentration: 250 μM
As for `CC1=C(Cc2cccnc2)CCc2ccccc21` [Example 15], the inhibition at 25 µM was determined as 56%.

Consider `COc1cccc2c1CCC(Cc1cccnc1)=C2C` [Example 16], for which the inhibition at 25 µM came to 50%.

With `COc1ccc2c(c1)CCC(Cc1cccnc1)=C2C` [Example 17], the inhibition at 25 µM came to 52%.

`COc1ccc2c(c1)C(C)=C(Cc1cccnc1)CC2` [Example 18] came in with an inhibition at 25 µM of 61%.

`CC1=C(Cc2cccnc2)CCc2c(O)cccc21` [Example 23]: 25 µM produced 60% inhibition.

On to `CC1=C(Cc2cccnc2)CCc2cc(O)ccc21` [Example 24], for which the inhibition at 25 µM is 37%.

The data set is the same for the next values; noted with them: testosterone 2.5 μM, NADPH 250 μM.
For the molecule `CC1=C(Cc2ccncc2)CCc2ccccc21` [Example 19], 230 nM corresponded to half-maximal inhibition (IC50).

As to `COc1cccc2c1CCC(Cc1ccncc1)=C2C` [Example 20], 380 nM corresponded to half-maximal inhibition (IC50).

`COc1ccc2c(c1)CCC(Cc1ccncc1)=C2C` [Example 21] gave an IC50 of 650 nM.

`COc1ccc2c(c1)C(C)=C(Cc1ccncc1)CC2` [Example 22] displayed an IC50 of 630 nM.

In turn, `CC1=C(Cc2cccnc2)CCc2ccc(O)cc21` [Example 25] displayed a half-inhibitory concentration (IC50) of 6400 nM.

On to `CC1=C(Cc2ccncc2)CCc2c(O)cccc21` [Example 26], for which half-maximal inhibition (IC50) required 700 nM.

Molecule `CC1=C(Cc2ccncc2)CCc2cc(O)ccc21` [Example 27] returned an IC50 of 1300 nM.

As for `CC1=C(Cc2ccncc2)CCc2ccc(O)cc21` [Example 28], the IC50 is 1200 nM.

Molecule `CCC1=C(Cc2ccncc2)CCc2c(OC)cccc21` [Example 37] registered an IC50 of 950 nM.

`CCC1=C(Cc2ccncc2)CCc2cc(OC)ccc21` [Example 38] came in with an IC50 of 790 nM.

`CCC1=C(Cc2ccncc2)CCc2ccc(OC)cc21` [Example 39] registered an IC50 of 1300 nM.

Molecule `CCOc1ccc2c(c1)C(C)=C(Cc1c[nH]cn1)CC2` [Example 40] registered an IC50 of 1200 nM.

For `COc1cccc2c1CCC(Cc1ccncc1)=C2` [Example 41], the IC50 turned out to be 950 nM.

`COc1ccc2c(c1)CCC(Cc1ccncc1)=C2` [Example 42]: half-maximal inhibition (IC50) was put at 790 nM.

In the case of `COc1ccc2c(c1)C=C(Cc1ccncc1)CC2` [Example 43], the IC50 worked out at 1700 nM.

In the case of `CCCC1=C(Cc2ccncc2)CCc2cc(OC)ccc21` [Example 44], the IC50 turned out to be 860 nM.

As for `Oc1ccc2c(c1)CCC(Cc1ccncc1)=C2` [Example 45], the IC50 came out at 3500 nM.

`COc1ccc2c(c1)CCC(Cc1c[nH]cn1)=C2` [Example 46] came in with an IC50 of 1800 nM.

System in another data set: not given
Test: not given
Conditions: not given
Molecule `COc1cccc2c1CCC(=Cc1c[nH]cn1)C2=O` [Example 50] yielded a melting point of 194 to 195 °C.

With `COc1cccc2c1CCC(Cc1c[nH]cn1)C2=O` (centres unmarked) [Example 51], the melting point lay within 145.5 to 148 °C.

`COc1cccc2c1CCC(Cc1c[nH]cn1)=C2C` [Example 52] had a melting point of 132.5 to 135 °C.

`CCC1=C(Cc2c[nH]cn2)CCc2cc(OC)ccc21` [Example 53] displayed a melting point of 138 to 141.5 °C.

`CCC1=C(Cc2c[nH]cn2)CCc2ccc(OC)cc21` [Example 54] registered a melting point of 111.5 to 113.5 °C.

`CCC1=C(Cc2c[nH]cn2)CCc2c(OC)cccc21.Cl` [Example 55] registered a melting point of 164 to 166 °C.

`CCCC1=C(Cc2c[nH]cn2)CCc2cc(OC)ccc21` [Example 56] showed a melting point of 123.5 to 124.5 °C.

Take `CCCC1=C(Cc2c[nH]cn2)CCc2c(OC)cccc21` [Example 57]: the melting point lay in the range of 174.5 to 175.5 °C.

Regarding `COc1ccc2c(c1)CCC(Cc1c[nH]cn1)=C2c1ccccc1` [Example 58], the melting point lay within 201.5 to 202.5 °C.

Take `COc1ccc2c(c1)C(c1ccccc1)=C(Cc1c[nH]cn1)CC2` [Example 59]: the melting point lay within 198.5 to 199.5 °C.

For the molecule `COc1cccc2c1CCC(Cc1c[nH]cn1)=C2c1ccccc1` [Example 60], the melting point fell in the range of 200 to 202 °C.

In the case of `COc1ccc2c(c1)CCC(Cc1c[nH]cn1)=C2Cc1ccccc1` [Example 61], the melting point lay within 122.5 to 123 °C.

In turn, `COc1cccc2c1CCC(Cc1c[nH]cn1)=C2.Cl` [Example 62] gave a melting point of 192.5 to 194.5 °C.

On to `COc1ccc2c(c1)C=C(Cc1c[nH]cn1)CC2` [Example 63], for which the melting point fell in the range of 155.5 to 156.5 °C.

Regarding `CCOc1cccc2c1CCC(=Cc1c[nH]cn1)C2=O` [Example 64], the melting point fell in the range of 122 to 124 °C.

Molecule `CCOc1cccc2c1CCC(Cc1c[nH]cn1)C2=O` (centres unmarked) [Example 65] came in with a melting point of 132 to 134 °C.

Molecule `CCOc1ccc2c(c1)CCC(=Cc1c[nH]cn1)C2=O` [Example 66] registered a melting point of 133.5 to 134.5 °C.

As to `CCOc1ccc2c(c1)CCC(Cc1c[nH]cn1)C2=O` (centres unmarked) [Example 67], the melting point is 143.5 to 144.5 °C.

`CCOc1ccc2c(c1)C(=O)C(=Cc1c[nH]cn1)CC2` [Example 68]: the melting point is 139.5 to 141 °C.

The molecule `CCOc1ccc2c(c1)C(=O)C(Cc1c[nH]cn1)CC2` (centres unmarked) [Example 69] registered a melting point of 176.5 to 178.5 °C.

In the case of `CCOc1cccc2c1CCC(Cc1c[nH]cn1)=C2C` [Example 70], the melting point fell in the range of 133.5 to 136 °C.

Molecule `CCOc1ccc2c(c1)CCC(Cc1c[nH]cn1)=C2C` [Example 71] gave a melting point of 126 to 127 °C.

With `CCOc1ccc2c(c1)C(C)=C(Cc1c[nH]cn1)CC2.Cl` [Example 72], the melting point lay within 170.5 to 171.5 °C.

`CCCOc1ccc2c(c1)CCC(=Cc1c[nH]cn1)C2=O` [Example 73] registered a melting point of 156.5 to 158 °C.

`CCCOc1ccc2c(c1)CCC(Cc1c[nH]cn1)C2=O` (centres unmarked) [Example 74] returned a melting point of 134.5 to 136 °C.

The molecule `CCCOc1ccc2c(c1)CCC(Cc1c[nH]cn1)=C2C` [Example 75] had a melting point of 91.5 to 92 °C.

Turning to `CC(C)COc1ccc2c(c1)CCC(=Cc1c[nH]cn1)C2=O` [Example 76], the melting point lay within 79 to 81.5 °C.

With `CC(C)COc1ccc2c(c1)CCC(Cc1c[nH]cn1)C2=O` (centres unmarked) [Example 77], the melting point was 114.5 to 115 °C.

In turn, `CC1=C(Cc2c[nH]cn2)CCc2cc(OCC(C)C)ccc21` [Example 78] had a melting point of 96 to 97 °C.

For the next data set, the system named is Thromboxane A2 synthesis. In words: Thromboxane A2 synthesis inhibiting activity test in citric acid-treated human whole blood. As to conditions: inhibitor 50 μM, collagen-stimulated. It counts as cell-based. How it is done: Measurement was done as follows according to the method of Rolf W. Hartmann et al. (Arch. Pharm. Pharm. Med. Chem., 329, 251, 1996). To 0.5 ml of citric acid-treated human whole blood were added 10 μl of an ethanol/K-Na-phosphate buffer solution (pH 7.4) containing a test compound, and the admixture was preincubated at 37° C. for 10 minutes. Dazoxybene hydrochloride (100 μM) was added to the blanks. Next, 50 μl of a collagen solution (final collagen concentration: 53.6 μg/ml) were added and incubation was continued at 37° C. for 10 minutes. The reaction was stopped by adding 0.4 ml of a 20% trichloroacetic acid solution in 0.6 M hydrochloric acid, and the admixture was centrifuged at 4400× g for 10 minutes. The resulting supernatant (0.5 ml) was fractionated and added to 0.5 ml of a 0.53% thiobarbituric acid solution (solvent: K-Na-phosphate buffer (pH 7.4)), and the admixture was heated for 70 minutes and then allowed to stand at room temperature for 30 minutes. This sample was measured by a fluorophotometer (excitation wave length: 533 nm, measurement wave length: 550 nm). Control samples without test compounds were tested in the same manner. The inhibiting activity (%) was calculated from the measurements using formula 1.
Enzyme source: Citric acid-treated human whole blood
Inhibitor concentration: 50 μM (inhibiting activity (%) was calculated)
Substrate concentration: 25 μM (progesterone)
The molecule `CC1=C(Cc2ccncc2)CCc2ccccc21` [Example 19] had an inhibition at 50 µM of 25%.

In the case of `COc1cccc2c1CCC(Cc1ccncc1)=C2C` [Example 20], at 50 µM the inhibition was 60%.

In the case of `COc1ccc2c(c1)CCC(Cc1ccncc1)=C2C` [Example 21], testing at 50 µM gave an inhibition of 43%.

Values taken from patent US6559157B2, “Dihydronaphthalene compounds” (Daiichi Pharmaceutical Co., Ltd., priority 1997, dated 2003).
